Laboratory results: patent US20230000812A1, “IBUPROFEN ESTER PRODRUG, PHARMACEUTICAL COMPOSITION, PREPARATION METHOD AND APPLICATION” (NANJING HERON PHARMACEUTICAL SCIENCE AND TECHNOLOGY CO., …, priority 2020, published 2023)
Where two headings read alike, the source gives them in different places. Blank lines part the entries; values can stand above or below the molecule they belong to.

Tests used:
[1] = In vitro human plasma metabolism (enzymolysis kinetics test in human plasma); conditions: for metabolic rate (hydrolysis rate) in human plasma: 0-120 min, FIG. 1 and 2; for degradation rate of the peaks in human plasma: liquid chromatograms, FIG. 3-5
[2] = human, 0.98 mM; for Amount of Active Metabolites Produced (%): 120 min; for Remaining Amount of the Prodrug Compound (%): plasma, 2 h
[3] = Stability of dextrorotatory enantiomers in solvents (MCT, soybean oil, phosphate buffer of Tween 80) at 80° C.; assay type: physicochemical; conditions: for purity of the isomer: oil phase or water phase; for purity of the isomer / related substances in the oil phase / content of the related substance in the water phase: 10 days
Method: Samples were placed at 80° C., and samples were taken on Day 0, 5, and 10 to determine the purity of the compounds and changes of the related substance (ibuprofen) and an isomer (levorotatory).
4.2 Determination of the related substance in accordance with high-performance liquid chromatography (Chinese Pharmacopoeia 2015 Edition General Rules 0512)
(1) Chromatographic conditions: Chromatographic column: Agilent ZORBAX SB-C8, 4.6 mm×250 mm, 5 μm; mobile phase: 0.1% phosphoric acid solution-acetonitrile (50:50); detection wavelength: 220 nm; flowrate: 1.0 mL per minute; column temperature: 40° C.
(§1) (2) Determination method: An appropriate amount of the substance was taken, accurately weighed, added with a diluent [anhydrous ethanol], shaken to be dissolved, quantitatively diluted into a solution of about 0.4 mg/mL, and vortexed for 30s. The solution was filtered with a PTFE filter membrane (0.22 μm, Jinteng) and the filtrate was used as the test solution, 10 μL was accurately measured into a liquid chromatograph and the chromatogram was recorded. In the chromatogram of the test solution, if there were impurity peaks, the results should be obtained by calculation according to a peak area normalization method.
4.3 Determination of the isomer in accordance with high-performance liquid chromatography (Chinese Pharmacopoeia 2015 Edition General Rules 0512)
as §1, with “Determination” for “(2) Determination”, “isomer” for “substance”, “[n-hexane-isopropanol (90:10)],” for “[anhydrous ethanol],”, “1.0” for “0.4”, “isomer” for “impurity”

[4] = Pharmacokinetics in rats after tail vein injection (Test Example 4); conditions: rat, in vivo
Method: The whole blood was centrifuged at 8000 rpm for 5 min, and plasma samples were taken and stored at −80° C., separately.
Preparation of test solutions: the test solutions were administered through tail veins of rats at a volume of […].

[5] = Phosphate buffer of Tween 80, 80° C., Day 0
[6] = Phosphate buffer of Tween 80, 80° C., Day 5
[7] = Phosphate buffer of Tween 80, 80° C., Day 10

metabolic rate (hydrolysis rate) in human plasma ([1]; human plasma): relatively slow metabolic rates
Remaining Amount of the Prodrug Compound (%) ([1]; human plasma, 37° C., 120 min): 78.6 ± 2.6%
degradation rate of the peaks in human plasma [1]: relatively slow degradation rate
Structure (SMILES): CC(C)Cc1ccc([C@H](C)C(=O)OC(C)OC(=O)OC(C)C)cc1 (stereo partly drawn) [Compound N2S]

Structure (SMILES): CC(C)Cc1ccc(C(C)C(=O)OC(C)OC(=O)OC(C)C)cc1 (stereo not drawn) [Compound N2]
Amount of Active Metabolites Produced (%) [2]: 10.7 ± 0.4%
Remaining Amount of the Prodrug Compound (%) [2]: 87.4 ± 5.3%

Ibuprofen (%) ([3]; MCT, 80° C., Day 0): 0.03%
Isomer (%) ([3]; MCT, 80° C., Day 0): 3.26%
Purity of related Main Peak (%) ([3]; MCT, 80° C., Day 0): 99.89%
Ibuprofen (%) ([3]; MCT, 80° C., Day 5): 0.05%
Isomer (%) ([3]; MCT, 80° C., Day 5): 3.47%
Purity of related Main Peak (%) ([3]; MCT, 80° C., Day 5): 99.88%
Ibuprofen (%) ([3]; MCT, 80° C., Day 10): 0.06%
Isomer (%) ([3]; MCT, 80° C., Day 10): 3.45%
Purity of related Main Peak (%) ([3]; MCT, 80° C., Day 10): 99.87%
Ibuprofen (%) [3, 5]: 2.42%
Isomer (%) [3, 5]: 3.68%
Purity of related Main Peak (%) [3, 5]: 97.56%
Ibuprofen (%) [3, 6]: 10.24%
Isomer (%) [3, 6]: 3.97%
Purity of related Main Peak (%) [3, 6]: 89.66%
Ibuprofen (%) [3, 7]: 16.98%
Isomer (%) [3, 7]: 3.88%
Purity of related Main Peak (%) [3, 7]: 82.73%
Ibuprofen (%) ([3]; Soybean oil, 80° C., Day 0): 0.03%
Isomer (%) ([3]; Soybean oil, 80° C., Day 0): 3.26%
Purity of related Main Peak (%) ([3]; Soybean oil, 80° C., Day 0): 99.84%
Ibuprofen (%) ([3]; Soybean oil, 80° C., Day 5): 0.08%
Isomer (%) ([3]; Soybean oil, 80° C., Day 5): 3.21%
Purity of related Main Peak (%) ([3]; Soybean oil, 80° C., Day 5): 99.79%
Ibuprofen (%) ([3]; Soybean oil, 80° C., Day 10): 0.16%
Isomer (%) ([3]; Soybean oil, 80° C., Day 10): 3.20%
Purity of related Main Peak (%) ([3]; Soybean oil, 80° C., Day 10): 99.47%
purity of the isomer ([3]; 80° C.): remains basically unchanged
related substances in the oil phase ([3]; 80° C.): remain basically unchanged
content of the related substance in the water phase ([3]; 80° C.): increases
Remaining Amount of the Prodrug Compound (%) ([1]; human plasma, 37° C., 120 min): 40.5 ± 1.6%
Structure (SMILES): CCOC(=O)OC(C)OC(=O)[C@@H](C)c1ccc(CC(C)C)cc1 (stereo partly drawn) [Compound N6S]
metabolic rate (hydrolysis rate) in human plasma ([1]; human plasma): relatively fast metabolic rates close to that of S-FPA

Structure (SMILES): CCOC(=O)OC(C)OC(=O)C(C)c1ccc(CC(C)C)cc1 (stereo not drawn) [Compound N6]
Remaining Amount of the Prodrug Compound (%) [2]: 58.96 ± 3.1%

Isomer (%) ([3]; MCT, 80° C., Day 0): 0.95%
Purity of related Main Peak (%) ([3]; MCT, 80° C., Day 0): 99.80%
Ibuprofen (%) ([3]; MCT, 80° C., Day 5): 0.02%
Isomer (%) ([3]; MCT, 80° C., Day 5): 0.95%
Purity of related Main Peak (%) ([3]; MCT, 80° C., Day 5): 99.78%
Ibuprofen (%) ([3]; MCT, 80° C., Day 10): 0.04%
Isomer (%) ([3]; MCT, 80° C., Day 10): 0.94%
Purity of related Main Peak (%) ([3]; MCT, 80° C., Day 10): 99.66%
Ibuprofen (%) [3, 5]: 0.63%
Isomer (%) [3, 5]: 0.86%
Purity of related Main Peak (%) [3, 5]: 99.03%
Ibuprofen (%) [3, 6]: 5.27%
Isomer (%) [3, 6]: 1.19%
Purity of related Main Peak (%) [3, 6]: 92.78%
Ibuprofen (%) [3, 7]: 8.76%
Isomer (%) [3, 7]: 1.78%
Purity of related Main Peak (%) [3, 7]: 87.97%
Isomer (%) ([3]; Soybean oil, 80° C., Day 0): 0.91%
Purity of related Main Peak (%) ([3]; Soybean oil, 80° C., Day 0): 99.85%
Ibuprofen (%) ([3]; Soybean oil, 80° C., Day 5): 0.09%
Isomer (%) ([3]; Soybean oil, 80° C., Day 5): 0.90%
Purity of related Main Peak (%) ([3]; Soybean oil, 80° C., Day 5): 99.57%
Ibuprofen (%) ([3]; Soybean oil, 80° C., Day 10): 0.13%
Isomer (%) ([3]; Soybean oil, 80° C., Day 10): 0.97%
Purity of related Main Peak (%) ([3]; Soybean oil, 80° C., Day 10): 99.38%
purity of the isomer ([3]; 80° C.): remains basically unchanged
related substances in the oil phase ([3]; 80° C.): remain basically unchanged
content of the related substance in the water phase ([3]; 80° C.): increases
Remaining Amount of the Prodrug Compound (%) ([1]; human plasma, 37° C., 120 min): 45.0 ± 2.1%
Structure (SMILES): CCOC(=O)OC(CC)OC(=O)[C@@H](C)c1ccc(CC(C)C)cc1 (stereo partly drawn) [Compound N9S]
metabolic rate (hydrolysis rate) in human plasma ([1]; human plasma): relatively fast metabolic rates close to that of S-FPA

Structure (SMILES): CCOC(=O)OC(CC)OC(=O)C(C)c1ccc(CC(C)C)cc1 (stereo not drawn) [Compound N9]
AUC0-t compared with dexibuprofen salt solution directly injected [4]: no significant difference
Amount of Active Metabolites Produced (%) [2]: 20.3 ± 0.8%
Remaining Amount of the Prodrug Compound (%) [2]: 62.5 ± 1.3%

metabolic rate (hydrolysis rate) in human plasma ([1]; human plasma): relatively slow metabolic rates
Structure (SMILES): CCC(OC(=O)OC(C)C)OC(=O)[C@@H](C)c1ccc(CC(C)C)cc1 (stereo partly drawn) [Compound N10S]

Remaining Amount of the Prodrug Compound (%) [1]: 50.9 ± 2.5%
Structure (SMILES): CC(=O)OC(C)OC(=O)C(C)c1ccc(-c2ccccc2)c(F)c1 (stereo not drawn) [FPA, flurbiprofen axetil, reference compound]

degradation rate of the peaks in human plasma [1]: different degradation rates
Structure (SMILES): CCOC(=O)O[C@H](C)OC(=O)[C@@H](C)c1ccc(CC(C)C)cc1 [N6(S)-1]

degradation rate of the peaks in human plasma [1]: different degradation rates
Structure (SMILES): CCOC(=O)O[C@@H](C)OC(=O)[C@@H](C)c1ccc(CC(C)C)cc1 [N6(S)-2]

degradation rate of the peaks in human plasma [1]: different degradation rates
Structure (SMILES): CCOC(=O)O[C@@H](CC)OC(=O)[C@@H](C)c1ccc(CC(C)C)cc1 [N9(S)-2]

Amount of Active Metabolites Produced (%) ([1]; human plasma, 37° C., 120 min): 44.3 ± 2.3%
Remaining Amount of the Prodrug Compound (%) ([1]; human plasma, 37° C., 120 min): 37.4 ± 1.9%
Structure (SMILES): CC(=O)OC(C)OC(=O)[C@@H](C)c1ccc(-c2ccccc2)c(F)c1 (stereo partly drawn) [S-FPA, reference compound]
